Measured values reported in patent publication EP0778266A1, “5-Amino-6-cyclohexyl-4-hydroxy-hexanamide derivatives as inhibitors of beta-amyloid protein production” (BRISTOL-MYERS SQUIBB COMPANY, priority 1995, dated 1997).

System: γ-Secretase
Test: Cell-based ELISA assay of β-AP production by transfected H4 cells expressing β-APP (Swedish variant); reported as inhibition of γ-secretase
Conditions: β-AP in conditioned medium of transfected H4 (human neuroglioma) cells by ELISA, approximately 16 hours incubation, dose response
Description: Production and detection of β-AP made by cells in culture. The use of transfected H4 (human neuroglioma) cells stably expressing constructs containing wild-type and mutant forms of β-APP have been used to identify inhibitors of β-AP production. The Swedish variant of β-APP produces 5-7 fold more β-AP than the wild type and is typically used due to its enhanced signal. […] The capture antibody is typically a mouse monoclonal (lgG1/kβ-APPa). The antibody recognizes the carboxyl terminal epitope of β-AP. The specificity of the capture antibody ensures measurement of β-AP without interference by other secreted β-APP fragments that share amino acid sequence (β-AP1-16) with β-AP. […] In the cell-based assay conditioned medium from H4 cells is tested by ELISA for the quantity of β-AP present. […]
A typical ELISA-based assay requires plating of the transfected cells at a density sufficient for the rapid detection of the secreted β-AP (experimentally predetermined for a particular stable cell population) in a 96-well format. […] Incubation of the cells with the test agent will continue for approximately 16 hours at which time equal aliquots of media from each sample well is removed and placed into a previously prepared ELISA plate for β-AP quantitation. The ELISA is carried out in a manner described by others (Haass, et al., 1992; Hawlow and Lane, 1988) and the β-AP signal quantitated. […]

[αS-(αR*, γR*, δR*)] N-(2,2-dimethylpropyl)-γ-hydroxy-α-(1-methylethyl)-δ-[(4-methylpentyl)amino]cyclohexanehexanamide hydrochloride. [Example 31]
Activity Rating: +++ (+++ ⇐ 10)
